Experimental data from patent publication EP4119138A1 (Universität Hamburg, priority 2021, dated 2023).

Legend:
LASV Ba366 = test: microbe, parasite or virus in culture; assay type: cell-based, Lassa virus; conditions: Mammarenavirus lassaense, Vero, 72 h
EBOV Mayinga = test: microbe, parasite or virus in culture; assay type: cell-based, Ebola virus; conditions: Zaire ebolavirus, Vero, 96 h
CCHFV Afg 09-2990 = test: microbe, parasite or virus in culture; assay type: cell-based, Crimean-Congo hemorrhagic fever orthonairovirus; conditions: Orthonairovirus haemorrhagiae, Vero, 72 h
hDHODH = hDHODH (Homo sapiens, UniProt Q02127); test: hDHODH enzyme assay (DCPIP absorption, initial velocities); assay type: biochemical; conditions: for IC50: hDHODH inhibition, HsDHODH29-396 35 nM, 25 °C
Chain of hDHODH (Q02127 29-395 limits assumed): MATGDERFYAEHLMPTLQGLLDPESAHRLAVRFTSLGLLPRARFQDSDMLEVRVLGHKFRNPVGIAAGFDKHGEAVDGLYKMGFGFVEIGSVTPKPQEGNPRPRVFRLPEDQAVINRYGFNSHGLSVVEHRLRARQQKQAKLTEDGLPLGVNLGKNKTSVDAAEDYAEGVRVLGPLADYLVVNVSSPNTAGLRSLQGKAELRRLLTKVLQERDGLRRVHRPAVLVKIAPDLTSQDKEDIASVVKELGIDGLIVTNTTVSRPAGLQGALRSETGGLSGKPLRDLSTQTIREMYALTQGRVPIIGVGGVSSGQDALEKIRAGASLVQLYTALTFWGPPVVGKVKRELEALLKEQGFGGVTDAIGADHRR
Experimental: Expression and purification of the enzyme was carried out following the protocol of DAS et al. (SAR-Based Optimization of a 4-Quinoline Carboxylic Acid Analogue with Potent Antiviral Activity. ACS Med. Chem. Lett. 2013, 4, 517-521). The prepared enzyme stock solution (325 µM) was thawed to 0 °C and carefully diluted to 87.5 nM with ice-cooled Tris-HCl buffer (50 mM Tris-HCl, 0.1 % Triton X-100, pH 8.0)). Stock solutions of all test compounds (100 mM), L-DHO (250 mM) and CoQ1 (250 mM) were prepared in DMSO, stored at -20 °C and thawed to room temperature before use. The reaction was performed in triplicates in a 96 well plate with total volumes of 200 µL containing L-dihydroorotate (L-DHO; 0.10 mM), coenzyme Q1 (CoQ1; 25 µM), 2,6-dichlorophenolindophenol (DCPIP; 60 µM), HsDHODH29-396 (35 nM) and the test compound (varying concentrations) in Tris-HCl buffer.
The compound stock solutions were diluted in Tris-HCl buffer to give nine different concentrations and each sample was treated with a freshly prepared substrate mixture containing L-DHO, CoQ1 and DCPIP. By simultaneous addition of 80 µL ice-cooled enzyme solution ([…]) per well and immediate mixing by thorough pipetting, the reaction was started. The absorption of the mixture was monitored using a spectrophotometer (Berthold Technologies TriStar2S LB942 Multimode Reader, ICE software) with one data point per 10 seconds at an excitation wavelength of 600 nm and a temperature of 25 °C. During the first 200 s from enzyme addition, linear initial enzyme velocites were recorded, from which the IC50 values were calculated by non-linear fitting (Origin software) to the following equation: v = (V0)/(1 + (c)/(IC50)) [formula] wherein • v is the determined initial, linear enzyme velocity, • V0 is the calculated enzyme velocity without test compound and • c is the concentration of added test compound.

[1] = test system: human PBMCs (CD4/CD8 T cells); test: Lymphocyte inhibition, Cytostim-stimulated PBMCs, flow cytometry; assay type: cell-based; conditions: T-cell stimulation by Cytostim, read-out: IC50 for CD4 and CD8 replication
Experimental: Lymphocyte inhibition was determined by using human PBMCs (peripheral blood mononuclear cells) as cell culture. The inhibitor compound was added at 8 different concentrations with each determination in triplicate and one control without inhibitor. T-cell stimulation was done by Cytostim, a reagent that binds T-cell receptors to MHC molecules of the antigen-presenting cells in an antibody-based manner and enables T-cell stimulation. Quantification was achieved by a flow cytometry-based method (Facs analysis) with staining of PBMCs with eFluor670 (eBioscience(TM)). The PBMCs are assigned to their populations (CD4/CD8 T cells) by use of other markers.

S9 metabolism assay = assay type: in vitro ADME, rat; conditions: for amide cleavage: hydrolysis study in S9 extract of rat liver, identified via LC-MS; for Metabolic stability [% remaining at 1h in rat S9 fraction]: test compound 100 µM, 37 °C
Experimental: Stock solutions of all test compounds (100 mM) were prepared in DMSO, stored at-20 °C and diluted in PB to 600 µM prior to the assay. Rat liver S9 fractions (SigmaAldrich, Lot # SLCC9026 and # SLCB2232) were combined, aliquoted (200 µL), stored at -80 °C and thawed to 0 °C before use. The reaction was performed in triplicates in eppendorf tubes with total volumes of 300 µL containing MgCl2 (5 mM), NADPH (5 mM), rat S9 fraction (1 mg) and the test compound (100 µM) in phosphate buffer (38.5 mM Na2HPO4, 11.5 mM KH2PO4, pH 7.3). 7-Ethoxycoumarin was assessed as reference inhibitor and a control without inhibitor but an equivalent amount of buffer instead was run. The ice cooled S9 fraction was added to a solution of MgCl2 and NADPH in PB and the resulting mixture was preincubated for 10 minutes at 37 °C in a shaker. Subsequently the reaction was started by addition of the test compound (50 µL), followed by threefold pipetting. After 0 h, 1 h and 3 h, samples of 50 µL were taken from the reaction, mixed with 150 µL ice-cooled methanol and centrifuged at 14000 rpm and 4 °C for 15 minutes. The supernatant was filtered with a syringe fiter, immediately quantified on HPLC and stored at -20 °C until LC/MS analysis.

[2] = Octanol-water partition coefficient (logD); assay type: physicochemical; conditions: PBS pH 7.4 / octanol, 25 °C; read-out: Log D (PBS pH 7.4/ octanol)
Experimental: Octanol and phosphate buffered saline (PBS, 137 mM NaCl, 2.7 mM KCl, 10 mM Na2HPO4, 2.0 mM KH2PO4, pH 7.4) were saturated with each other prior to the experiment. Stock solutions of all test compounds (100 mM) were prepared in DMSO, stored at - 20 °C and diluted with the saturated PBS to 100 µM prior to the experiment. The experiment was performed in duplicates in 2 mL HPLC-vials. 300 µL of the test compound solution (100 µM) was overlayered with 300 µL saturated octanol. The emulsions were vortexed for 1 min and shaken for 1 h at 180 rpm and 25 °C. After phase separation, the aqueous phases and the initial 100 µM compound solution were quantified on HPLC.

[3] = Membrane permeability (PAMPA assay); assay type: in vitro ADME; conditions: PBS pH 7.4, 5 h, 25 °C
Experimental: Stock solutions of all test compounds (100 mM) were prepared in DMSO, stored at -20 °C and diluted with phosphate buffered saline (PBS, 137 mM NaCl, 2.7 mM KCl, 10 mM Na2HPO4, 2.0 mM KH2PO4, pH 7.4) to 200 µM prior to the experiment. The assay was performed in triplicates in a 96 well Corning Gentest Precoated PAMPA Plate System, which was stored at -20 °C and thawed to room temperature for 1 h prior to the assay. Wells of the donor plate were filled with 300 µL of the compound solutions (200 µM) and 200 µL PBS were added to the wells of the receiver plate. Two controls without inhibitor but an equivalent amount of buffer instead was run. Bubble-free assembling of the two plates was followed by 5 h incubation at 25 °C. Finally, the plates were carefully separated from each other. 150 µL of each well of both plates were transferred to black 96-well FluoroNunc™ plates and quantified on fluorescence spectrophotometer (Berthold Technologies TriStar^2S LB942 Multimode Reader, ICE software). Membrane Permeabilities were calculated using the following equation: Ppampa = (−ln(1−(cacc (t))/(ceq)))/(Aperm ⋅((1)/(Vdon)+(1)/(Vacc))⋅t) [formula] wherein • Cacc(t) is the compound concentration in acceptor well at time t, • Aperm is the area of the membrane filter (0.3 cm^2), • Vdon is the donor well volume (0.3 mL), • Vacc is the acceptor well volume (0.2 mL) and • Ceq is the equilibrium concentration with ceq = (cdon (t)⋅Vdon + cacc (t)⋅Vacc)/(Vdon + Vacc) [formula] where cdon(t) is the compound concentration in donor well at time t.

in vitro = conditions: African green monkey

Row | SMILES | IC50 (LASV Ba366) | IC50 (EBOV Mayinga) | IC50 (CCHFV Afg 09-2990) | IC50 (hDHODH) | IC50 [1] | amide cleavage (S9 metabolism assay) | Metabolic stability [% remaining at 1h in rat S9 fraction] (S9 metabolism assay) | logD [2] | Papp at 5 h, 200 µM [3] | CC50 (in vitro) | percentual inhibition of hDHODH (hDHODH; at a 1 µM concentration)
1 | CCC(C)(C)c1cccc2cc(CNC(=O)Nc3ccccc3C(=O)O)oc12 [Example 1] | 35 nM | 14 nM | 100 nM | 9.2 nM | ~150 nM | no amide cleavage | 68.2% | 2.98 | 5.74 ×10⁻⁶ cm/s | > 1000 nM | –
2 | O=C(NCc1cc2cccc(C(F)(F)F)c2o1)Nc1ccccc1C(=O)O [Example 2, 2-(3-((7-(trifluoromethyl)benzofuran-2-yl)methyl)ureido)benzoic acid] | 1000 nM | – | – | 90.7 nM | – | no amide cleavage | 92.0% | 1.96 | 3.23 ×10⁻⁶ cm/s | – | –
3 | O=C(NCc1cc2cc(F)cc(C(F)(F)F)c2o1)Nc1ccccc1C(=O)O [Example 3] | – | – | – | ~230 nM | – | – | – | – | – | – | –
4 | CCC(=O)Nc1ccc(C#Cc2ccc(N3CCOCC3)cc2)cc1C(=O)O [Example 4] | 600 nM | – | – | 50 nM | – | – | – | – | – | – | –
5 | O=C(Nc1cnccc1C(=O)O)Nc1cccc2ccccc12 [Example 18] | – | – | – | 81 nM | – | did not show amide cleavage | 89.6% | 0.32 | 6.84 ×10⁻⁶ cm/s | – | 91%
6 | CCC(C)c1ccccc1OCCCC(=O)Nc1ccccc1C(=O)O (centres unmarked) [reference compound] | – | – | – | – | – | showed a cleavage of the amide bond | – | – | – | – | –
